# According to patent US7595404B2, “Thiazolyl-substituted carbocyclic 1,3-diones as pesticidal agents” (Bayer CropScience AG, priority 2001, dated 2009):
# What was measured:
# Alternaria solani = assay: Alternaria test (tomato)/protective; assay type: in vivo; conditions: protective, 100 g/ha, 3 days after inoculation
# Description: Alternaria Test (Tomato)/Protective […] To produce a suitable preparation of active compound, 1 part by weight of active compound is mixed with the stated amounts of solvent and emulsifier, and the concentrate is diluted with water to the desired concentration. To test for protective activity, young plants are sprayed with the preparation of active compound at the stated application rate. After the spray coating has dried on, the plants are inoculated with an aqueous spore suspension of Alternaria solani. The plants are then placed in an incubation cabin at about […] and 100% relative atmospheric humidity.
# [1] = test system: caterpillars of the armyworm (Spodoptera frugiperda); assay: Spodoptera frugiperda test; assay type: in vivo; conditions: 500 ppm, dipped cabbage leaves
# Description: Spodoptera Frugiperda Test • Solvent: 7 parts by weight of dimethylformamide • Emulsifier: 2 parts by weight of alkylaryl polyglycol ether To produce a suitable preparation of active compound, 1 part by weight of active compound is mixed with the stated amounts of solvent and emulsifier, and the concentrate is diluted with emulsifier-containing water to the desired concentration. Cabbage leaves (Brassica oleracea) are treated by being dipped into the preparation of active compound of the desired concentration and are populated with caterpillars of the armyworm (Spodoptera frugiperda) while the leaves are still moist. After the desired period of time, the kill in % is determined. 100% means that all caterpillar larvae have been killed; 0% means that none of the caterpillar have been killed.
# Pyricularia oryzae = assay type: cell-based; conditions: 50% inhibition of fungal growth, tested at 0.1, 1, 10 and 100 ppm, 22° C., 3-5 days, photometric 620 nm
# Lolium = assay: Pre-emergence test, Lolium; assay type: in vivo; conditions: pre-emergence/greenhouse; 60 g a.i./ha; after three weeks
# Description: (§1) • Solvent: 5 parts by weight of acetone • Emulsifier: 1 part by weight of alkylaryl polyglycol ether
# (§2) To produce a suitable preparation of active compound, 1 part by weight of active compound is mixed with the stated amount of solvent, the stated amount of emulsifier is added and the concentrate is diluted with water to the desired concentration.
# (§3) Seeds of the test plants are sown in normal soil. After about 24 hours, the soil is sprayed with the preparation of active compound such that the particular amounts of active compound desired are applied per unit area. The concentration of the spray liquor is chosen such that the particular amounts of active compound desired are applied in 1000 l of water/ha.
# (§4) After three weeks, the degree of damage to the plants is rated in % damage in comparison to the development of the untreated control.
# (§5) The figures denote: • 0% =no effect (like untreated control) • 100% =total destruction
# Wheat = assay: Pre-emergence test, Wheat; assay type: in vivo; conditions: pre-emergence/greenhouse; 60 g a.i./ha; after three weeks; crop
# Description: as §1, §2, §3, §4, §5
# Setaria [2] = assay: Post-emergence test, Setaria; assay type: in vivo; conditions: post-emergence/greenhouse; 250 g a.i./ha; after three weeks
# Description: as §1, §2
# as §3, with “Test plants” for “Seeds”, “a height of 5-15 cm” for “the test plants”, “are” for “are sown in normal soil. After about 24 hours, the soil is”
# as §4, §5
# Septoria tritici = assay: In vitro test for the ED50 determination in microorganisms, Septoria tritici; assay type: cell-based; conditions: 50% inhibition of fungal growth, tested at 0.1, 1, 10 and 100 ppm, 22° C., 3-5 days, photometric 620 nm
# Sinapis = assay: Post-emergence test, Sinapis; assay type: in vivo; conditions: post-emergence/greenhouse; 250 g a.i./ha; after three weeks
# Description: as §1, §2
# as §3, with “Test plants” for “Seeds”, “a height of 5-15 cm” for “the test plants”, “are” for “are sown in normal soil. After about 24 hours, the soil is”
# as §4, §5
# Ustilago avenae = assay: In vitro test for the ED50 determination in microorganisms, Ustilago avenae; assay type: cell-based; conditions: 50% inhibition of fungal growth, tested at 0.1, 1, 10 and 100 ppm, 22° C., 3-5 days, photometric 620 nm
# Matricaria = assay: Pre-emergence test, Matricaria; assay type: in vivo; conditions: pre-emergence/greenhouse; 60 g a.i./ha; after three weeks
# Description: as §1, §2, §3, §4, §5
# Avena fatua = assay: Post-emergence test, Avena fatua; assay type: in vivo; conditions: post-emergence/greenhouse; 250 g a.i./ha; after three weeks
# Description: as §1, §2
# as §3, with “Test plants” for “Seeds”, “a height of 5-15 cm” for “the test plants”, “are” for “are sown in normal soil. After about 24 hours, the soil is”
# as §4, §5
# [3] = test system: apple scab pathogen Venturia inaequalis; assay: Venturia test (apple)/protective; assay type: in vivo; conditions: protective, 100 g/ha, 10 days after inoculation
# Description: Venturia Test (Apple)/Protective […] To produce a suitable preparation of active compound, 1 part by weight of active compound is mixed with the stated amounts of solvent and emulsifier, and the concentrate is diluted with water to the desired concentration. To test for protective activity, young plants are sprayed with the preparation of active compound at the stated application rate. After the spray coating has dried on, the plants are inoculated with an aqueous conidia suspension of the apple scab pathogen Venturia inaequalis and then remain in an incubation cabin at about 20° C. and 100% relative atmospheric humidity for 1 day. The plants are then placed in a greenhouse at about 21° C. and a relative atmospheric humidity of about 90%.
# Botrytis cinerea = assay: Botrytis test (bean)/protective; assay type: in vivo; conditions: protective, 500 g/ha, 2 days after inoculation
# Description: Botrytis Test (Bean)/Protective
# • Solvent: 24.5 parts by weight of acetone 24.5 parts by weight of dimethylacetamide • Emulsifier: 1 part by weight of alkyl-arylpolyglycol ether
# To produce a suitable preparation of active compound, 1 part by weight of active compound is mixed with the stated amounts of solvent and emulsifier, and the concentrate is diluted with water to the desired concentration.
# To test for protective activity, young plants are sprayed with the preparation of active compound at the stated application rate. After the spray coating has dried on, two small pieces of agar colonized by Botrytis cinerea are placed onto each leaf. The inoculated plants are placed in a dark chamber at about 20° C. and 100% relative atmospheric humidity.
# 2 days after the inoculation, the size of the infested areas on the leaves is evaluated. 0% means an efficacy which corresponds to that of the control, whereas an efficacy of 100% means that no infection is observed.
# Alopecurus = assay: Post-emergence test, Alopecurus; assay type: in vivo; conditions: post-emergence/greenhouse; 250 g a.i./ha; after three weeks
# Description: as §1, §2
# as §3, with “Test plants” for “Seeds”, “a height of 5-15 cm” for “the test plants”, “are” for “are sown in normal soil. After about 24 hours, the soil is”
# as §4, §5
# Sphaerotheca fuliginea = assay: Sphaerotheca test (cucumber)/protective; assay type: in vivo; conditions: protective, 100 g/ha, 7 days after inoculation
# Description: Sphaerotheca Test (Cucumber)/Protective […] To produce a suitable preparation of active compound, 1 part by weight of active compound is mixed with the stated amounts of solvent and emulsifier, and the concentrate is diluted with water to the desired concentration. To test for protective activity, young plants are sprayed with the preparation of active compound at the stated application rate. After the spray coating has dried on, the plants are inoculated with an aqueous spore suspension of Sphaerotheca fuliginea. The plants are then placed in a greenhouse at about 23° C. and a relative atmospheric humidity of about 70%.
# Setaria [4] = assay: Pre-emergence test, Setaria; assay type: in vivo; conditions: pre-emergence/greenhouse; 60 g a.i./ha; after three weeks
# Description: as §1, §2, §3, §4, §5
# Soya bean = assay: Pre-emergence test, Soya bean; assay type: in vivo; conditions: pre-emergence/greenhouse; 60 g a.i./ha; after three weeks; crop
# Description: as §1, §2, §3, §4, §5
# Digitaria = assay: Pre-emergence test, Digitaria; assay type: in vivo; conditions: pre-emergence/greenhouse; 60 g a.i./ha; after three weeks
# Description: as §1, §2, §3, §4, §5
structure (smiles),measurement,setting,value
Cc1sc(-c2ccc(Cl)cc2)nc1C1=C(O)C2(CCCCC2)CC1=O [Example I-1-a-2],% efficacy,Alternaria solani,93%
same,Kill rate in % after 7 d,[1],100%
same,ED50 value,Pyricularia oryzae,<0.1 ppm
same,"% damage, Lolium",Lolium,100%
same,"% damage, Wheat",Wheat,0%
same,"% damage, Setaria",Setaria [2],100%
same,ED50 value,Septoria tritici,<0.1 ppm
same,"% damage, Sinapis",Sinapis,80%
same,ED50 value,Ustilago avenae,<0.1 ppm
same,"% damage, Matricana",Matricaria,95%
same,"% damage, Avena fatua",Avena fatua,100%
same,% efficacy,[3],91%
same,% efficacy,Botrytis cinerea,92%
same,"% damage, Alopecurus",Alopecurus,90%
same,% efficacy,Sphaerotheca fuliginea,100%
same,"% damage, Setaria",Setaria [4],100%
same,"% damage, Soya bean",Soya bean,0%
same,"% damage, Digitaria",Digitaria,100%
